Bridge positions count the residues as written; N and C are the ends. Square brackets hold non-standard residues; d marks the D form. Peptide text beside a SMILES is read from it. * marks the point of attachment. DOTA = O=C(O)CN1CCN(CC(=O)O)CCN(CC(=O)*)CCN(CC(=O)O)CC1; 1Nal = N[C@@H](Cc1cccc2ccccc12)C(=O)O; 2Nal = N[C@@H](Cc1ccc2ccccc2c1)C(=O)O; NMeF = CN[C@@H](Cc1ccccc1)C(=O)O; αMeF = C[C@](N)(Cc1ccccc1)C(=O)O; Chg = N[C@H](C(=O)O)C1CCCCC1; dNle = CCCC[C@@H](N)C(=O)O; dNMeA = CN[C@H](C)C(=O)O
target: T1, human DLL3 (Homo sapiens, UniProt Q9NYJ7); assay: Affinity determination by Surface Plasmon Resonance (SPR), Biacore, 1:1 binding model; details: biotinylated human DLL3 on streptavidin chip, 25° C.; NB = nonbinding
T1 construct: biotin (biotinylated)
T1 sequence (Q9NYJ7 27-618): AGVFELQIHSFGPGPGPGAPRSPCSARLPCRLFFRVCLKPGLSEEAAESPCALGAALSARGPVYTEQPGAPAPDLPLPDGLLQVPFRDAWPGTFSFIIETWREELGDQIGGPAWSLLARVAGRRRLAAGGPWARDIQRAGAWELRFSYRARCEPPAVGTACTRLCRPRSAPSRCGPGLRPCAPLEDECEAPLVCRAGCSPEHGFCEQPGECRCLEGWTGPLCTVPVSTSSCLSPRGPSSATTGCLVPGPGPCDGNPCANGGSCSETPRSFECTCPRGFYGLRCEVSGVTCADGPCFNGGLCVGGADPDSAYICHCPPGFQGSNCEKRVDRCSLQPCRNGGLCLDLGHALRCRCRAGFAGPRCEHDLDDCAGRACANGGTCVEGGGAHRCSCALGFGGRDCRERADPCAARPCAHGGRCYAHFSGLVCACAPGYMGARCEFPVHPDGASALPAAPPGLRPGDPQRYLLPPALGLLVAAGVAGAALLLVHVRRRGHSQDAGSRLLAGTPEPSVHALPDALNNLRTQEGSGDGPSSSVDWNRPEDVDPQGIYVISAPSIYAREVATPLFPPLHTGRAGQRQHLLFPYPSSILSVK
In short: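 SPR with biotinylated human DLL3 captured on a streptavidin chip, with a reference surface subtracted. Samples were injected at several concentrations at 100 μL/min in phosphate buffer with 137 mM NaCl, 2.7 mM KCl, 0.05% P20 and 2% DMSO. Kinetic and affinity constants came from a 1:1 binding fit.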

**Q.** With `CC(=O)N[C@H](C(=O)N[C@@H](CO)C(=O)N[C@@H](CC(=O)O)C(=O)N[C@H]1CSSC[C@@H](C(=O)N2CCC[C@H]2C(=O)N[C@@H](Cc2ccccc2)C(=O)N[C@@H](CC(=O)O)C(N)=O)NC(=O)[C@H](CC(N)=O)NC(=O)[C@H](Cc2c[nH]c3ccccc23)NC(=O)[C@H](CCC(N)=O)NC(=O)[C@H](CC(C)C)NC(=O)[C@H](CCCCNC(=O)CN2CCN(CC(=O)O)CCN(CC(=O)O)CCN(CC(=O)O)CC2)NC1=O)C1CCCCC1` [compound 97, Ac-(Chg)-S-D-C(3)-[L-Lys(DOTA)]-L-Q-W-N-C(3)-P-F-D-CONH2] (Ac-[Chg]SDCK(DOTA)LQWNCPFD-NH2; disulfide 4-10) as the compound, how does the Kd read?
**A.** > 100 nM

**Q.** For `CC(=O)N[C@H](C(=O)N[C@@H](CO)C(=O)N[C@@H](CC(=O)O)C(=O)N[C@H]1CSSC[C@@H](C(=O)N2CCC[C@H]2C(=O)N[C@@H](Cc2ccccc2)C(=O)N[C@@H](CC(=O)O)C(N)=O)NC(=O)[C@H](CC(N)=O)NC(=O)[C@H](CCCCNC(=O)CN2CCN(CC(=O)O)CCN(CC(=O)O)CCN(CC(=O)O)CC2)NC(=O)[C@H](CCC(N)=O)NC(=O)[C@H](CC(C)C)NC(=O)[C@H](Cc2c[nH]c3ccccc23)NC1=O)C1CCCCC1` [compound 99, Ac-(Chg)-S-D-C(3)-W-L-Q-[L-Lys(DOTA)]-N-C(3)-P-F-D-CONH2] (Ac-[Chg]SDCWLQK(DOTA)NCPFD-NH2; disulfide 4-10), which Kd is on record?
**A.** > 100 nM

**Q.** With `CC(=O)N[C@H](C(=O)N[C@@H](CO)C(=O)N[C@@H](CC(=O)O)C(=O)N[C@H]1CSSC[C@@H](C(=O)N2CCC[C@H]2C(=O)N[C@@H](Cc2ccccc2)C(=O)N[C@@H](CC(=O)O)C(N)=O)NC(=O)[C@H](CCCCNC(=O)CN2CCN(CC(=O)O)CCN(CC(=O)O)CCN(CC(=O)O)CC2)NC(=O)[C@H](Cc2c[nH]c3ccccc23)NC(=O)[C@H](CCC(N)=O)NC(=O)[C@H](CC(C)C)NC(=O)[C@H](Cc2c[nH]c3ccccc23)NC1=O)C1CCCCC1` [compound 100, Ac-(Chg)-S-D-C(3)-W-L-Q-W-[L-Lys(DOTA)]-C(3)-P-F-D-CONH2] (Ac-[Chg]SDCWLQWK(DOTA)CPFD-NH2; disulfide 4-10) as the compound, how does the Kd read?
**A.** > 300 nM

**Q.** Which Kd does the source give for `CC(=O)N[C@H](C(=O)N[C@@H](CO)C(=O)N[C@@H](CC(=O)O)C(=O)N[C@H]1CSSC[C@@H](C(=O)N[C@@H](CCCCNC(=O)CN2CCN(CC(=O)O)CCN(CC(=O)O)CCN(CC(=O)O)CC2)C(=O)N[C@@H](Cc2ccccc2)C(=O)N[C@@H](CC(=O)O)C(N)=O)NC(=O)[C@H](CC(N)=O)NC(=O)[C@H](Cc2c[nH]c3ccccc23)NC(=O)[C@H](CCC(N)=O)NC(=O)[C@H](CC(C)C)NC(=O)[C@H](Cc2c[nH]c3ccccc23)NC1=O)C1CCCCC1` [compound 101, Ac-(Chg)-S-D-C(3)-W-L-Q-W-N-C(3)-[L-Lys(DOTA)]-F-D-CONH2] (Ac-[Chg]SDCWLQWNCK(DOTA)FD-NH2; disulfide 4-10) here?
**A.** > 300 nM

**Q.** With `CC(=O)N[C@H](C(=O)N[C@@H](CO)C(=O)N[C@@H](CC(=O)O)C(=O)N[C@H]1CSSC[C@@H](C(=O)N2CCC[C@H]2C(=O)N[C@@H](CCCCNC(=O)CN2CCN(CC(=O)O)CCN(CC(=O)O)CCN(CC(=O)O)CC2)C(=O)N[C@@H](CC(=O)O)C(N)=O)NC(=O)[C@H](CC(N)=O)NC(=O)[C@H](Cc2c[nH]c3ccccc23)NC(=O)[C@H](CCC(N)=O)NC(=O)[C@H](CC(C)C)NC(=O)[C@H](Cc2c[nH]c3ccccc23)NC1=O)C1CCCCC1` [compound 102, Ac-(Chg)-S-D-C(3)-W-L-Q-W-N-C(3)-P-[L-Lys(DOTA)]-D-CONH2] (Ac-[Chg]SDCWLQWNCPK(DOTA)D-NH2; disulfide 4-10) as the compound, how does the Kd read?
**A.** > 100 nM

**Q.** For `CCCC[C@@H](NC(C)=O)C(=O)N[C@@H](CO)C(=O)N[C@@H](CC(=O)O)C(=O)N[C@H]1CSSC[C@@H](C(=O)N2CCC[C@H]2C(=O)N[C@@H](Cc2ccccc2)C(=O)N[C@@H](CC(=O)O)C(=O)N[C@H](CCCCNC(=O)CN2CCN(CC(=O)O)CCN(CC(=O)O)CCN(CC(=O)O)CC2)C(N)=O)NC(=O)[C@H](CC(N)=O)NC(=O)[C@H](Cc2c[nH]c3ccccc23)NC(=O)[C@H](CCC(N)=O)NC(=O)[C@H](CC(C)C)NC(=O)[C@H](Cc2cccc3ccccc23)NC1=O` [compound 103, Ac-(D-Nle)-S-D-C(3)-(1Nal)-L-Q-W-N-C(3)-P-F-D-D-Lys(DOTA)-CONH2] (Ac-[dNle]SDC[1Nal]LQWNCPFD[dK](DOTA)-NH2; disulfide 4-10), which Kd is on record?
**A.** 0.35 nM

**Q.** How did the Kd turn out when `CC(=O)N[C@H](C)C(=O)N[C@@H](CO)C(=O)N[C@@H](CC(=O)O)C(=O)N[C@H]1CSSC[C@@H](C(=O)N2CCC[C@H]2C(=O)N[C@@H](Cc2ccccc2)C(=O)N[C@@H](CC(=O)O)C(=O)N[C@H](CCCCNC(=O)CN2CCN(CC(=O)O)CCN(CC(=O)O)CCN(CC(=O)O)CC2)C(N)=O)NC(=O)[C@H](CC(N)=O)NC(=O)[C@H](Cc2c[nH]c3ccccc23)NC(=O)[C@H](CCC(N)=O)NC(=O)[C@H](CC(C)C)NC(=O)[C@H](Cc2cccc3ccccc23)NC1=O` [compound 104, Ac-(D-Ala)-S-D-C(3)-(1Nal)-L-Q-W-N-C(3)-P-F-D-D-Lys(DOTA)-CONH2] (Ac-[dA]SDC[1Nal]LQWNCPFD[dK](DOTA)-NH2; disulfide 4-10) was run?
**A.** 0.35 nM

**Q.** With `CC(=O)N[C@H](C(=O)N[C@@H](CO)C(=O)N[C@@H](CC(=O)O)C(=O)N[C@H]1CSSC[C@@H](C(=O)N(C)[C@H](C)C(=O)N[C@@](C)(Cc2ccccc2)C(=O)N[C@@H](CC(=O)O)C(=O)N[C@H](CCCCNC(=O)CN2CCN(CC(=O)O)CCN(CC(=O)O)CCN(CC(=O)O)CC2)C(N)=O)NC(=O)[C@H](CC(N)=O)NC(=O)[C@H](Cc2c[nH]c3ccccc23)NC(=O)[C@H](CCC(N)=O)NC(=O)[C@H](CC(C)C)NC(=O)[C@H](Cc2cccc3ccccc23)NC1=O)C1CCCCC1` [compound 109, Ac-(Chg)-S-D-C(3)-(1Nal)-L-Q-W-N-C(3)-(NMeD-Ala)-(aMe-F)-D-D-Lys(DOTA)-CONH2] (Ac-[Chg]SDC[1Nal]LQWNC[dNMeA][αMeF]D[dK](DOTA)-NH2; disulfide 4-10) as the compound, how does the Kd read?
**A.** 0.96 nM

**Q.** `CC(=O)N[C@H](C(=O)N[C@@H](CO)C(=O)N[C@@H](CC(=O)O)C(=O)N[C@H]1CSSC[C@@H](C(=O)N(C)[C@H](C)C(=O)N(C)[C@@H](Cc2ccccc2)C(=O)N[C@@H](CC(=O)O)C(=O)N[C@H](CCCCNC(=O)CN2CCN(CC(=O)O)CCN(CC(=O)O)CCN(CC(=O)O)CC2)C(N)=O)NC(=O)[C@H](CC(N)=O)NC(=O)[C@H](Cc2c[nH]c3ccccc23)NC(=O)[C@H](CCC(N)=O)NC(=O)[C@H](CC(C)C)NC(=O)[C@H](Cc2cccc3ccccc23)NC1=O)C1CCCCC1` [compound 110, Ac-(Chg)-S-D-C(3)-(1Nal)-L-Q-W-N-C(3)-(NMeD-Ala)-(NMe-F)-D-D-Lys(DOTA)-CONH2] (Ac-[Chg]SDC[1Nal]LQWNC[dNMeA][NMeF]D[dK](DOTA)-NH2; disulfide 4-10) was tested. Which Kd did it give?
**A.** > 30 nM

**Q.** Which Kd does the source give for `CC(=O)N[C@H](C(=O)N[C@@H](CO)C(=O)N[C@@H](CC(=O)O)C(=O)N[C@H]1CSSC[C@@H](C(=O)N2CCC[C@H]2C(=O)N[C@@H](Cc2ccccc2)C(=O)N[C@@H](CC(=O)O)C(=O)N[C@H](CCCCNC(=O)CN2CCN(CC(=O)O)CCN(CC(=O)O)CCN(CC(=O)O)CC2)C(N)=O)NC(=O)[C@H](CC(N)=O)NC(=O)[C@H](Cc2ccc3ccccc3c2)NC(=O)[C@H](CCC(N)=O)NC(=O)[C@H](CC(C)C)NC(=O)[C@H](Cc2cccc3ccccc23)NC1=O)C1CCCCC1` [compound 114, Ac-(Chg)-S-D-C(3)-(1Nal)-L-Q-(2Nal)-N-C(3)-P-F-D-D-Lys(DOTA)-CONH2] (Ac-[Chg]SDC[1Nal]LQ[2Nal]NCPFD[dK](DOTA)-NH2; disulfide 4-10) here?
**A.** 0.38 nM

— patent US20250186541A1, “DLL3 TARGETING PEPTIDES AND CONSTRUCTS THEREOF” (MARIANA ONCOLOGY INC., priority 2023, published 2025)
